Reference: article PMC12749748, “Chemically-induced degradation of the endoplasmic-reticulum stress sensor IRE1 by a VHL-recruiting chimera” (Nature Communications, 2025)

What was measured:
[1] = tested on: IRE1 L577D, V586D, A597D, L644D, L695D, E651A; assay: NanoBRET with IRE1 point mutants disrupting IRE1:G6374 interactions; assay type: cell-based; conditions: each of L577D, HEK293T
Experimental: (§1) 8 × 10^5 293T cells per well were seeded in 6-well plates (Costar, #3516) and incubated at 37 °C, 5% CO2 for 6 h. A mixture of 0.2 µg ERN1 (IRE1)-NanoLuc Fusion Vector (Promega, NV1321), 2 µg HaloTag-VHL Fusion Vector (Promega, N2731), 6 µl FuGENE HD Transfection Reagent (Promega, E2311), and 100 µL Opti-MEM I reduced serum medium (Gibco, #31985062) per well was incubated at room temperature for 20 min before adding to cells. For expression of IRE1 mutants, site-directed mutagenesis was performed using the ERN1-NanoLuc Fusion Vector as the DNA template, and the transfection mixture was prepared in the same way as WT IRE1. After 18 h, cells from 6-well plates were trypsinized, resuspended in Opti-MEM I reduced serum medium, and reseeded into 96-well plates (Costar, #3917), with or without the addition of HaloTag NanoBRET 618 Ligand (Promega, G9801). After 18 h of incubation, a titration of G6374 (dilutions made in Opti-MEM I reduced serum medium) was added to the cells. After 2 h of G6374 treatment, NanoBRET Nano-Glo Substrate (Promega, N1571) was added to cells. The 96-well plates were imaged by GloMax Discover Microplate Reader (Promega, GM3000) with the default “BRET: NanoBRET 618” protocol (Donor: 450 BP; Acceptor: 600 LP; Integration: 0.3 s). Data analysis was performed according to the user manual.

IRE1 H579A:VHL = target: T1, IRE1 H579A:VHL (Homo sapiens, UniProt O75460+P40337, H579A); assay: NanoBRET IRE1:VHL interaction, IRE1 H579A, HEK293T cells; assay type: cell-based
T1 construct: N2731; host or cells: HEK293T
T1 sequence (O75460 19-977 H579A): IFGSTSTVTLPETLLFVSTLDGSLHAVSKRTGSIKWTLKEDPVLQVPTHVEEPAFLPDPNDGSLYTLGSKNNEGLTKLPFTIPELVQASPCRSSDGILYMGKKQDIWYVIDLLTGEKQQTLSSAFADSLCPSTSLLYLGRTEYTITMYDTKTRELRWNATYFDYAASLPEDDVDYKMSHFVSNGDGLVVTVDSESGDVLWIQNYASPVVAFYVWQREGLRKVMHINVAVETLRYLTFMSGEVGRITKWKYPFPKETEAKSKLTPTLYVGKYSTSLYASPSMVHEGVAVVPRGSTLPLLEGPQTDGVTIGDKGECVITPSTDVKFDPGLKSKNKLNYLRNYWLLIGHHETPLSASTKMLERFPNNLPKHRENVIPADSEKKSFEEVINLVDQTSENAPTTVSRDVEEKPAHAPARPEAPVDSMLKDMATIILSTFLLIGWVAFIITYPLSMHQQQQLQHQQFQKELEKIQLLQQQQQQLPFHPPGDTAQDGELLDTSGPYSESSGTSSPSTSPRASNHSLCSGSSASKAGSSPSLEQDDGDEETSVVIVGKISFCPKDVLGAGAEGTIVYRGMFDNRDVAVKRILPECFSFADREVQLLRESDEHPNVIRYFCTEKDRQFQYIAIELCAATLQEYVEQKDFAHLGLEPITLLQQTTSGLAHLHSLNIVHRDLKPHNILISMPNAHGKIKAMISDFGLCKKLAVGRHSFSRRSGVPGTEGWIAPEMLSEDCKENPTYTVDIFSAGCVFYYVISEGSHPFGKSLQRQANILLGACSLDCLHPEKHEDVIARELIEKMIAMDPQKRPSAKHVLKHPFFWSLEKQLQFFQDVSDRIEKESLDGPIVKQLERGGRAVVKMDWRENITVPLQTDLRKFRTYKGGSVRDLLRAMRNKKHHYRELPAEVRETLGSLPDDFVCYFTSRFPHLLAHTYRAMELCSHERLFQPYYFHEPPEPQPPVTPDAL
T1 sequence (Q13617 whole entry, further chain): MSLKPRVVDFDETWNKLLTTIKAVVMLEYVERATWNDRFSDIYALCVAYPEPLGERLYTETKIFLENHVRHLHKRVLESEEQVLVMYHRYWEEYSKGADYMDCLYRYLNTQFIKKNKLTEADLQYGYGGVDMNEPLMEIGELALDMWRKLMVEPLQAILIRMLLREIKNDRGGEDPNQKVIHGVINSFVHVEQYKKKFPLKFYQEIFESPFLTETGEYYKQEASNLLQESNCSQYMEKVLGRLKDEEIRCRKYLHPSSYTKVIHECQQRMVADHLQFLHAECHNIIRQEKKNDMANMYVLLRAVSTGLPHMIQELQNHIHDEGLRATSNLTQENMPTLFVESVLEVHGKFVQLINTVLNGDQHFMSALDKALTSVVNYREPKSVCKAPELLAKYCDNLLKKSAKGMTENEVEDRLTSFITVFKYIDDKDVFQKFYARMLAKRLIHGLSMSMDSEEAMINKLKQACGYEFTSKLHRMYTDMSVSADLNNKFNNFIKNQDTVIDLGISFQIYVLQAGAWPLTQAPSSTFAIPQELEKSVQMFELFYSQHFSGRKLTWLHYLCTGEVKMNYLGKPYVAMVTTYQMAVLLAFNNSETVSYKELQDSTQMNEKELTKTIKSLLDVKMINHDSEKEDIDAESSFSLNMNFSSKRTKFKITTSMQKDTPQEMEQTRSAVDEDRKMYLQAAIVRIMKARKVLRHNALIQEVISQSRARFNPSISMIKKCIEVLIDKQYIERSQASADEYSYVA
T1 sequence (Q15370 whole entry, further chain): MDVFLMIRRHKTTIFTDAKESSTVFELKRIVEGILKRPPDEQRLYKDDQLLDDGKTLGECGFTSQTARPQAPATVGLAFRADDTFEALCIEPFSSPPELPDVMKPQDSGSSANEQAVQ
T1 sequence (P62877 whole entry, further chain): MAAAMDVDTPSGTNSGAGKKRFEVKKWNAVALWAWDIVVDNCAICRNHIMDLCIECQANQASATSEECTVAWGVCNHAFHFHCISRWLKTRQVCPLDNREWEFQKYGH
T1 sequence (P40337 whole entry): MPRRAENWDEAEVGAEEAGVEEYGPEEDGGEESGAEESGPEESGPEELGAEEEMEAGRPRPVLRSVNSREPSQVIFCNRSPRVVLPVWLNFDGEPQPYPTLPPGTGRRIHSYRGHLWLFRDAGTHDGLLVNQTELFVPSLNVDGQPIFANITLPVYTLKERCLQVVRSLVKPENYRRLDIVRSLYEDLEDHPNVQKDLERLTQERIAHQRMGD
T1 sequence (Q15369 whole entry, further chain): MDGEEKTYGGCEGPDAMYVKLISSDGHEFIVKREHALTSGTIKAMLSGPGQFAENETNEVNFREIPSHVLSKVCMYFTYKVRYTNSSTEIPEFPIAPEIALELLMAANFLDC
Experimental: as §1

IRE1 = IRE1 (Homo sapiens, UniProt O75460); assay: SelectScreen kinase profiling, IRE1; assay type: biochemical; conditions: 1 µM, 1 h
Sequence of IRE1 (O75460 19-977): as the sequence (O75460 19-977 H579A) above, with A561H counted along it
Experimental: The kinome selectivity of G6374 was assessed at 1 μM for 1 h versus a panel of 220 human kinases (SelectScreen Kinase Profiling Services, Thermo Fisher Scientific). The assays were conducted using either the Z’-LYTE technology to assess inhibition of enzyme activity ([ATP] = Km) or the TR-FRET-based LanthaScreen Eu Kinase Binding assay to assess competitive displacement of an ATP site binding probe. Assay results were normalized to positive and negative controls to determine percent inhibition. Image was created by KNIME Report Designer (KNIME.com AG, Zurich, Switzerland). Kinases for which ATP binding was inhibited by more than 90% were further examined by IB analysis for depletion by G6374 in AMO1 cells (4 h incubation).

AMO1 cells = assay: Global proteomics of protein depletion in AMO1 cells; assay type: cell-based; conditions: 1 µM, 4 h
Experimental: One milligram of protein lysate in denaturing buffer (8 M Urea, 20 mM HEPES, pH 8.0) was reduced (5 mM dithiothreitol (DTT), 45 min at 37 °C), alkylated (15 mM iodoacetamide (IAA), 20 min at room temperature in the dark), and quenched (5 mM DTT, 15 min at room temperature in the dark). Proteins were pelleted by chloroform-methanol precipitation. The resulting pellet was resuspended in denaturing buffer, diluted to 4 M Urea, and digested for 4 h at 37 °C with lysyl-endopeptidase (Wako) at an enzyme to protein ratio of 1:100. The sample was further diluted to 1.3 M Urea and subjected to overnight enzymatic digestion at 37 °C with sequencing grade trypsin (Promega, enzyme: protein ratio = 1:50). Resultant peptides were acidified with 20% Trifluoroacetic acid (TFA, 1% final concentration), centrifuged at 18,000 × g for 15 min, and desalted using a Sep-Pak C18 column (Waters). […]
For the global proteome, LC-MS/MS analysis was performed by injecting 1 μL of each fraction on an Orbitrap Eclipse mass spectrometer (Thermo Fisher) coupled to a Dionex Ultimate 3000 RSLC (Thermo Fisher) employing a 25 cm IonOpticks Aurora Series column (IonOpticks, Parkville, Australia) with a gradient of 2% to 30% buffer B (98% ACN, 2% H2O with 0.1% FA, flow rate = 300 nL/min). Global proteome samples were analyzed with a total run time of 95 min. […]

Compound: Cc1ncsc1-c1ccc(CNC(=O)[C@@H]2C[C@@H](O)CN2C(=O)[C@@H](NC(=O)CCCCN2CCN([C@H]3CC[C@H](Nc4ncc5ccc(=O)n(C(C)C)c5n4)CC3)CC2)C(C)(C)C)cc1 [G6374]
- G6374-induced IRE1:VHL interaction and IRE1 degradation with IRE1 point mutants [1]: abolish the G6374-induced interaction between IRE1 and VHL
- EC50 (IRE1 H579A:VHL): 0.45 ± 0.06 µM
- inhibition of IRE1 (IRE1): complete inhibition
- protein depletion by global proteomics, G6374 versus G2642 (AMO1 cells): IRE1 as the most substantially and significantly depleted protein target
